Reference: patent US12263248B2, “Compounds and compositions for intracellular delivery of therapeutic agents” (ModernaTX, Inc., priority 2018, dated 2025)

Experiments:
[1] = Particle size and polydispersity index of nanoparticle compositions (Zetasizer Nano ZS); format: physicochemical
Method: A Zetasizer Nano ZS (Malvern Instruments Ltd, Malvern, Worcestershire, UK) can be used to determine the particle size, the polydispersity index (PDI) and the zeta potential of the nanoparticle compositions in 1×PBS in determining particle size and 15 mM PBS in determining zeta potential.

[2] = Encapsulation efficiency of RNA (QUANT-IT RIBOGREEN RNA assay); format: physicochemical
Method: For nanoparticle compositions including an RNA, a QUANT-IT™ RIBOGREEN® RNA assay (Invitrogen Corporation Carlsbad, CA) can be used to evaluate the encapsulation of an RNA by the nanoparticle composition. The samples are diluted to a concentration of approximately […] in a TE buffer solution (10 mM Tris-HCl, 1 mM EDTA, pH 7.5). 50 μL of the diluted samples are transferred to a polystyrene 96 well plate and either 50 μL of TE buffer or 50 μL of a 2% Triton X-100 solution is added to the wells. The plate is incubated at a temperature of 37° C. for 15 minutes. The RIBOGREEN® reagent is diluted 1:100 in TE buffer, and 100 μL of this solution is added to each well. The fluorescence intensity can be measured using a fluorescence plate reader (Wallac Victor 1420 Multilabel Counter; Perkin Elmer, Waltham, MA) at an excitation wavelength of, for example, about 480 nm and an emission wavelength of, for example, about 520 nm. The fluorescence values of the reagent blank are subtracted from that of each of the samples and the percentage of free RNA is determined by dividing the fluorescence intensity of the intact sample (without addition of Triton X-100) by the fluorescence value of the disrupted sample (caused by the addition of Triton X-100).

luciferase (Luc) mRNA [3] = assay: Luc expression, whole body bioluminescence after intravenous administration to mice; format: in vivo; settings: for Total Flux 3 hours / Total Flux 6 hours / Total Flux 24 hours: Luc mRNA; for Fold increase in total body Luc Flux relative to MC3 at 6 h: Table 3A; for flux at all timepoints measured: 3, 6 and 24 hour, in words
Method: In order to monitor how effectively various nanoparticle compositions deliver therapeutic and/or prophylactics to targeted cells, different nanoparticle compositions including a particular therapeutic and/or prophylactic (for example, a modified or naturally occurring RNA such as an mRNA) are prepared and administered to rodent populations. Mice are intravenously, intramuscularly, intraarterially, or intratumorally administered a single dose including a nanoparticle composition with a formulation such as those provided in Example 3. In some instances, mice may be made to inhale doses. Dose sizes may range from 0.001 mg/kg to 10 mg/kg, where 10 mg/kg describes a dose including 10 mg of a therapeutic and/or prophylactic in a nanoparticle composition for each 1 kg of body mass of the mouse. A control composition including PBS may also be employed.
Upon administration of nanoparticle compositions to mice, dose delivery profiles, dose responses, and toxicity of particular formulations and doses thereof can be measured by enzyme-linked immunosorbent assays (ELISA), bioluminescent imaging, or other methods. For nanoparticle compositions including mRNA, time courses of protein expression can also be evaluated. Samples collected from the rodents for evaluation may include blood, sera, and tissue (for example, muscle tissue from the site of an intramuscular injection and internal tissue); sample collection may involve sacrifice of the animals.
The efficacy of the nanoparticle compositions presented in Table 1A was evaluated with a bioluminescence study. Formulations were administered intravenously to mice (n=6) at a dosage of 0.5 mg/kg (mpk) and bioluminescence measured at 3, 6, and 24 hour time points. The standard MC3 formulation and, in some instances, a control (e.g., a PBS control) were evaluated for comparison. […] In general, flux decreased as time progressed to less than 10% of the initial flux.
(§1) Whole body and ex vivo organ bioluminescent imaging of mice: CD-1 mice were injected 15 minutes prior to the imaging timepoint intraperitoneally (IP) with 200 μL Xenolight D-luciferin K+ salt, diluted in PBS just prior to use to a concentration of 15 mg/mL. Ex vivo imaging of organs was completed within 25 minutes of luciferin administration. All images were quantified by region of interest for total flux.

luciferase (Luc) mRNA [4] = assay: Luc expression in liver, lung, spleen and femur 6 hours after intravenous administration; format: in vivo; settings: mice, 0.5 mpk; for Total Flux Liver / Total Flux Lung / Total Flux Spleen: intravenous; for Flux in the spleen / Flux in the liver: i.v., in words
Method: The efficacy of the nanoparticle compositions presented in Table 1A was further evaluated by measuring the expression of modified luciferase in the liver, lung, spleen, and femur upon administration of a given composition. Formulations were administered intravenously to mice (n=3) at a dosage of 0.5 mpk and bioluminescence measured after 6 hours. The standard MC3 formulation and a PBS control were also tested. […] Flux in the liver was lowest for compositions including Compounds 58, 59, 137, and 141. Flux in the spleen was highest for compositions including Compounds 4, 7, 33, 34, 48, 53, 108, 129, 130, and 148, and lowest for compositions including Compounds 9, 59, 124, and 141.
as §1

[5] = Table 1A, lipid:DSPC:cholesterol:PEG-DMG 50:10:38.5:1.5 mol %
[6] = Table 1B, formulated with hEPO mRNA

| Structure (SMILES) | Size (nm) [1, 5] | EE (%) ([2]; Table 1A) | PDI ([1]; Table 1A) | PDI [1, 6] | Size (nm) [1, 6] | EE (%) [2, 6] | Total Flux 3 hours (luciferase (Luc) mRNA [3]; mice, i.v., 0.5 mg/kg) | Total Flux 6 hours (luciferase (Luc) mRNA [3]; mice, i.v., 0.5 mg/kg) | Total Flux 24 hours (luciferase (Luc) mRNA [3]; mice, i.v., 0.5 mg/kg) | Total Flux Liver (luciferase (Luc) mRNA [4]) | Total Flux Lung (luciferase (Luc) mRNA [4]) | Total Flux Spleen (luciferase (Luc) mRNA [4]) | Fold increase in total body Luc Flux relative to MC3 at 6 h (luciferase (Luc) mRNA [3]; i.v. administration) | Flux in the spleen (luciferase (Luc) mRNA [4]) | flux at all timepoints measured (luciferase (Luc) mRNA [3]; mice, i.v., 0.5 mg/kg) | Flux in the liver (luciferase (Luc) mRNA [4]) | 6 h Lipid/MC3 Avg. Luc Expression (luciferase (Luc) mRNA [3]; Table 3C, i.v. administration) | Fold increase AUC Lipid/MC3 (luciferase (Luc) mRNA [3]; Table 3C, i.v. administration) | AUC (h * p/s) (luciferase (Luc) mRNA [3]; Table 3C, i.v. administration, Luc) | total flux at 3 hours (luciferase (Luc) mRNA [3]; mice, i.v., 0.5 mg/kg, comparison in words) |
| --- | --- | --- | --- | --- | --- | --- | --- | --- | --- | --- | --- | --- | --- | --- | --- | --- | --- | --- | --- | --- |
| CCCCCCCCC(CCCCCCCC)OC(=O)CCCCCCCN(CCO)CCCCCCCCC1CC1CCCCCCCC (centres unmarked) [Compound 47, heptadecan-9-yl 8-((2-hydroxyethyl)(8-(2-octylcyclopropyl)octyl)amino)octanoate] | 80.6 nm | 96.40% | 0.10 | – | – | – | 6.55E+10 | 5.38E+10 | 2.09E+09 | 4.86E+09 | 8.71E+06 | 8.33E+07 | – | – | – | – | – | – | – | – |
| CCCCCCCCC(CCCCCCCC)OC(=O)CCCCCCCN(CCO)CCCC(=O)OCCCC [Compound 51, heptadecan-9-yl 8-((4-butoxy-4-oxobutyl)(2-hydroxyethyl)amino) octanoate] | 148.8 nm | 89.83% | 0.17 | – | – | – | 1.34E+08 | 2.80E+08 | 6.20E+06 | 2.49E+07 | 3.67E+05 | 2.80E+07 | 0.025 | – | – | – | – | – | – | – |
| CCCCCCCCC(CCCCCCCC)OC(=O)CCCCCCCN(CCO)CCCCCCCC(=O)OC1CCC(CCCCC)CC1 (centres unmarked) [Compound 66, Heptadecan-9-yl 8-((2-hydroxyethyl)(8-oxo-8-((4-pentylcyclohexyl)oxy)octyl)amino)octanoate] | 76.7 nm | 96.52% | 0.120 | – | – | – | 9.66E+10 | 4.577E+10 | 5.56E+09 | 5.01E+09 | 4.20E+06 | 2.00E+07 | 0.103 | – | – | – | 6.28 | 8.20 | 6.76E+11 h * p/s | highest |
| CCCCCCCCCOC(=O)CCCCCCCN(CCCCCCCC(=O)OC(CCCCCCCC)CCCCCCCC)CCCn1ccc(N)nc1=O [Compound 115, Heptadecan-9-yl 8-((3-(4-amino-2-oxopyrimidin-1(2H)-yl)propyl)(8-(nonyloxy)-8-oxooctyl)amino)octanoate] | 64.5 nm | 99.7% | 0.11 | – | – | – | 2.13E+07 | 2.91E+07 | – | – | – | – | – | – | – | – | – | – | – | – |
| CCCCCCCCCOC(=O)CCCCCCCN(CCCCCCCC(=O)OC(CCCCCCCC)CCCCCCCC)CCCC(=O)NC [Compound 239, Heptadecan-9-yl 8-((4-(methylamino)-4-oxobutyl)(8-(nonyloxy)-8-oxooctyl)amino)octanoate] | 55.8 nm | 90.42% | 0.12 | 0.14 | 71.3 nm | 82.6% | – | – | – | – | – | – | – | – | – | – | – | – | – | – |

Further lines, with some results ahead:

| Size (nm) [1, 5] | EE (%) ([2]; Table 1A) | PDI ([1]; Table 1A) | PDI [1, 6] | Size (nm) [1, 6] | EE (%) [2, 6] | Structure (SMILES) | Total Flux 3 hours (luciferase (Luc) mRNA [3]; mice, i.v., 0.5 mg/kg) | Total Flux 6 hours (luciferase (Luc) mRNA [3]; mice, i.v., 0.5 mg/kg) | Total Flux 24 hours (luciferase (Luc) mRNA [3]; mice, i.v., 0.5 mg/kg) | Total Flux Liver (luciferase (Luc) mRNA [4]) | Total Flux Lung (luciferase (Luc) mRNA [4]) | Total Flux Spleen (luciferase (Luc) mRNA [4]) | Fold increase in total body Luc Flux relative to MC3 at 6 h (luciferase (Luc) mRNA [3]; i.v. administration) | Flux in the spleen (luciferase (Luc) mRNA [4]) | flux at all timepoints measured (luciferase (Luc) mRNA [3]; mice, i.v., 0.5 mg/kg) | Flux in the liver (luciferase (Luc) mRNA [4]) | 6 h Lipid/MC3 Avg. Luc Expression (luciferase (Luc) mRNA [3]; Table 3C, i.v. administration) | Fold increase AUC Lipid/MC3 (luciferase (Luc) mRNA [3]; Table 3C, i.v. administration) | AUC (h * p/s) (luciferase (Luc) mRNA [3]; Table 3C, i.v. administration, Luc) | total flux at 3 hours (luciferase (Luc) mRNA [3]; mice, i.v., 0.5 mg/kg, comparison in words) |
| --- | --- | --- | --- | --- | --- | --- | --- | --- | --- | --- | --- | --- | --- | --- | --- | --- | --- | --- | --- | --- |
| 53.5 nm | −15.1% | – | – | – | – | CCCCCCCCCOC(=O)CCCCCCCN(CCC#N)CCCCCCCC(=O)OC(CCCCCCCC)CCCCCCCC [Compound 21, Heptadecan-9-yl 8-((2-cyanoethyl)(8-(nonyloxy)-8-oxooctyl)amino) octanoate] | – | – | – | – | – | – | – | – | – | – | – | – | – | – |
| 130.5 nm | 93.25% | 0.19 | – | – | – | CCCCCCCCC(CCCCCCCC)OC(=O)CCCCCCCN(CCO)CCCC(=O)OCCCCC [Compound 52, heptadecan-9-yl 8-((2-hydroxyethyl)(4-oxo-4-(pentyloxy)butyl)amino) octanoate] | 2.91E+09 | 4.63E+09 | 2.55E+07 | 5.86E+08 | 2.80E+06 | 8.30E+07 | – | – | – | – | – | – | – | – |
| 125.4 nm | 95.8% | 0.13 | – | – | – | CCCCCCCCC(CCCCCCCC)OC(=O)CCCCCCCN(CCO)CCCC(=O)OCCCCCC [Compound 53, heptadecan-9-yl 8-((4-(hexyloxy)-4-oxobutyl)(2-hydroxyethyl)amino) octanoate] | 1.91E+10 | 2.32E+10 | 1.01E+09 | 2.02E+09 | 2.47E+07 | 8.54E+08 | 2.11 | highest | – | – | – | – | – | – |
| 112.1 nm | 95.18% | 0.17 | – | – | – | CCCCCCCCCOC(=O)CCCCCCCN(CCO)CCCCCCCC(=O)OC(CCCCCC)CCCCCC [Compound 56, nonyl 8-((2-hydroxyethyl)(8-oxo-8-(tridecan-7-yloxy)octyl)amino) octanoate] | 1.27E+10 | 8.06E+09 | 2.53E+08 | 1.04E+09 | 4.62E+06 | 1.98E+08 | 0.733 | – | – | – | – | – | – | – |
| 130.8 nm | 92.54% | 0.14 | – | – | – | CCCCCCCCCOC(=O)CCCCCCCN(CCO)CCCCCCCC(=O)OC(CCC)CCC [Compound 58, heptan-4-yl 8-((2-hydroxyethyl)(8-(nonyloxy)-8-oxooctyl)amino) octanoate] | 5.69E+05 | 7.60E+05 | 3.64E+05 | 8.71E+04 | 1.21E+04 | 2.38E+05 | 0.00007 | – | significantly lower flux | lowest | – | – | – | – |
| 237.0 nm | 94.44% | 0.24 | – | – | – | CCCCCCCCCOC(=O)CCCCCCCN(CCO)CCCCCCCC(=O)OC(CC)CC [Compound 59, nonyl 8-((2-hydroxyethyl)(8-oxo-8-(pentan-3-yloxy)octyl)amino) octanoate] | 2.75E+05 | 2.79E+05 | 1.45E+05 | 2.87E+05 | 4.41E+04 | 9.68E+04 | 0.00003 | lowest | significantly lower flux | lowest | – | – | – | – |
| 90.9 nm | 79.6% | 0.16 | – | – | – | CCCCCCCCCOC(=O)CCCCCCCN(CCCCCCCC(=O)OC(CCCCCCCC)CCCCCCCC)CCC(=O)O [Compound 125, 3-((8-(Heptadecan-9-yloxy)-8-oxooctyl)(8-(nonyloxy)-8-oxooctyl)amino)propanoic acid] | 2.44E+05 | 3.16E+05 | – | – | – | – | – | – | significantly lower flux | – | – | – | – | – |
